Experimental data taken from patent US5262411A, “Isocephem derivatives, and antimicrobial composition containing the derivatives” (Otsuka Pharmaceutical Co., Ltd., priority 1989, dated 1993).
Converted amounts (≈) assume the structure as drawn. Read-outs that look alike come from different tables or passages of the source. Each block holds one compound with its values, some of them ahead of it.

How the values were obtained:
Format in all cases: cell-based
K. pneumoniae NCTC-9632 = assay: MIC against K. pneumoniae NCTC-9632 by the plate diluted method; conditions: Klebsiella pneumoniae, NCTC9632
Procedure: (§1) In order to investigate the in vitro activity of the test compounds against various bacteria, the minimal inhibitory concentration (MIC) values were determined by the plate diluted method (See CHEMOTHERAPY, 22, 1126-1128, 1974.)
(§2) Each strain was adjusted to 1×10^6 cells/ml (O.D. 600 mμ, 0.07 to 0.16).

P. aeruginosa E-2 = assay: MIC against P. aeruginosa E-2 by the plate diluted method; conditions: Pseudomonas aeruginosa, E2
Procedure: as §1, §2

A. calcoaceticus Ac-54 = assay: MIC against A. calcoaceticus Ac-54 by the plate diluted method; conditions: Acinetobacter calcoaceticus, AC54
Procedure: as §1, §2

S. aureaus FDA-209P = assay: MIC against S. aureaus FDA-209P by the plate diluted method; conditions: Staphylococcus aureus, FDA209P
Procedure: as §1, §2

S. marcescens IFO 12648 = assay: MIC against S. marcescens IFO 12648 by the plate diluted method; conditions: Serratia marcescens, IFO12648
Procedure: as §1, §2

M. moganii IIDkono = assay: MIC against M. moganii IIDkono by the plate diluted method
Procedure: as §1, §2

P. aeruginosa ATCC-10145 = assay: MIC against P. aeruginosa ATCC-10145 by the plate diluted method; conditions: Pseudomonas aeruginosa, ATCC10145
Procedure: as §1, §2

E. coli NIHJ JC-2 = assay: MIC against E. coli NIHJ JC-2 by the plate diluted method; conditions: Escherichia coli, NIHJJC2
Procedure: as §1, §2

E. coli No. 29 = assay: MIC against E. coli No. 29 by the plate diluted method; conditions: Escherichia coli, 1×10^6 cells/ml
Procedure: as §1, §2

[1] = K. pneumoniae NCTC-9632, 1×10^6 cells/ml, read-out: MIC
[2] = P. aeruginosa E-2, 1×10^6 cells/ml, read-out: MIC
[3] = A. calcoaceticus Ac-54, 1×10^6 cells/ml, read-out: MIC
[4] = S. aureaus FDA-209P, 1×10^6 cells/ml, read-out: MIC
[5] = S. marcescens IFO 12648, 1×10^6 cells/ml, read-out: MIC
[6] = P. aeruginosa ATCC-10145, 1×10^6 cells/ml, read-out: MIC
[7] = E. coli NIHJ JC-2, 1×10^6 cells/ml, read-out: MIC
[8] = M. moganii IIDkono, 1×10^6 cells/ml, read-out: MIC

Structure (SMILES): Cc1nc(SCC2=C(C(=O)O)N3C(=O)[C@@H](NC(=O)/C(=N\OCc4cc(=O)c(O)cn4O)c4nsc(N)n4)[C@H]3SC2)sc1CC(=O)O [No. 19, (6R,7R)-7-[(Z)-2-(5-amino-1,2,4-thiadiazol-3-yl)-2-(1,5-dihydroxy-4-pyridone-2-ylmethoxyimino)acetamide]-3-(5-carboxymethyl-4-methylthiazol-2-ylthiomethyl)-3-cephem-4-carboxylic acid]
MIC (K. pneumoniae NCTC-9632; [1]): 0.024 µg/mL (≈ 0.0338 µM)
MIC (P. aeruginosa E-2; [2]): 0.1 µg/mL (≈ 0.141 µM)
MIC (A. calcoaceticus Ac-54; [3]): 0.05 µg/mL (≈ 0.0703 µM)
MIC (S. aureaus FDA-209P; [4]): 100 µg/mL (≈ 141 µM)
MIC (S. marcescens IFO 12648; [5]): 0.024 µg/mL (≈ 0.0338 µM)
MIC (M. moganii IIDkono): 0.05 µg/mL (≈ 0.0703 µM)
MIC (P. aeruginosa ATCC-10145; [6]): 0.05 µg/mL (≈ 0.0703 µM)
MIC (E. coli NIHJ JC-2; [7]): 0.1 µg/mL (≈ 0.141 µM)

Structure (SMILES): Nc1nc(/C(=N/OCc2cc(=O)c(O)cn2O)C(=O)N[C@@H]2C(=O)N3C(C(=O)O)=C(CSc4snc(O)c4C(=O)O)SC[C@H]23)ns1 [No. 22, (6S,7S)-7-[(Z)-2-(5-amino-1,2,4-thiadiazol-3-yl)-2-(1,5-dihydroxy-4-pyridone-2-ylmethoxyimino)acetamide]-3-(4-carboxy-3-hydroxyisothiazol-5-ylthiomethyl) isocephem-4-carboxylic acid]
MIC (K. pneumoniae NCTC-9632; [1]): 0.012 µg/mL (≈ 0.0172 µM)
MIC (P. aeruginosa E-2; [2]): 0.2 µg/mL (≈ 0.286 µM)
MIC (A. calcoaceticus Ac-54; [3]): 0.1 µg/mL (≈ 0.143 µM)
MIC (S. aureaus FDA-209P; [4]): 100 µg/mL (≈ 143 µM)
MIC (S. marcescens IFO 12648; [5]): 0.012 µg/mL (≈ 0.0172 µM)
MIC (M. moganii IIDkono): 0.05 µg/mL (≈ 0.0716 µM)
MIC (P. aeruginosa ATCC-10145; [6]): 0.1 µg/mL (≈ 0.143 µM)
MIC (E. coli NIHJ JC-2; [7]): 0.05 µg/mL (≈ 0.0716 µM)

Structure (SMILES): CC(C)(O/N=C(\C(=O)N[C@@H]1C(=O)N2C(C(=O)[O-])=C(C[n+]3ccccc3)CS[C@H]12)c1csc(N)n1)C(=O)O [CAZ, Ceftazizime, reference compound]
MIC (K. pneumoniae NCTC-9632): 0.05 µg/mL (≈ 0.0915 µM)
MIC (P. aeruginosa E-2): 1.56 µg/mL (≈ 2.85 µM)
MIC (A. calcoaceticus Ac-54): 1.56 µg/mL (≈ 2.85 µM)
MIC (S. aureaus FDA-209P): 3.13 µg/mL (≈ 5.73 µM)
MIC (S. marcescens IFO 12648): 0.024 µg/mL (≈ 0.0439 µM)
MIC (M. moganii IIDkono): 0.05 µg/mL (≈ 0.0915 µM)
MIC (P. aeruginosa ATCC-10145): 0.78 µg/mL (≈ 1.43 µM)
MIC (E. coli NIHJ JC-2): 0.2 µg/mL (≈ 0.366 µM)

Structure (SMILES): Nc1nc(/C(=N/OCC(=O)O)C(=O)N[C@@H]2C(=O)N3C(C(=O)[O-])=C(CSc4cc[n+](CC(=O)c5ccc(O)c(O)c5)cc4)OC[C@H]23)cs1 [No. 8, (6S,7S)-7-[(Z)-2-(2-aminothiazol-4-yl)-2-(1-carboxymethoxy)iminoacetamide]-3 {[1-[2-(3,4-dihydroxyphenyl)-2-oxo]ethyl]-4-pyridinio}thiomethyl-Δ^3 -O-2-isocephem-4-carboxylate]
MIC (K. pneumoniae NCTC-9632; [1]): ≤ 0.006 µg/mL
MIC (P. aeruginosa E-2; [2]): 0.1 µg/mL (≈ 0.146 µM)
MIC (A. calcoaceticus Ac-54; [3]): 0.05 µg/mL (≈ 0.073 µM)
MIC (S. aureaus FDA-209P): 1.56 µg/mL (≈ 2.28 µM)
MIC (S. marcescens IFO 12648; [5]): 0.024 µg/mL (≈ 0.0351 µM)
MIC (E. coli No. 29): ≤ 0.006 µg/mL
MIC (M. moganii IIDkono; [8]): 0.024 µg/mL (≈ 0.0351 µM)
MIC (P. aeruginosa ATCC-10145; [6]): 0.05 µg/mL (≈ 0.073 µM)

Structure (SMILES): Cc1nnc(SCC2=C(C(=O)O)N3C(=O)[C@@H](NC(=O)/C(=N\OCc4ccc(O)c(O)c4)c4csc(N)n4)[C@H]3CS2)s1 [No. 5, (6S,7S)-7-[(Z)-2-(2-aminothiazol-4-yl)-2-(3,4-dihydroxyphenylmethoxyimino)]acetamide-3-(2-methyl-1,3,4-thiadiazol-5-ylthiomethyl)isocephem-4-carboxylic acid]
MIC (K. pneumoniae NCTC-9632; [1]): 0.012 µg/mL (≈ 0.0189 µM)
MIC (P. aeruginosa E-2; [2]): 0.39 µg/mL (≈ 0.613 µM)
MIC (A. calcoaceticus Ac-54; [3]): 0.39 µg/mL (≈ 0.613 µM)
MIC (S. aureaus FDA-209P): 1.56 µg/mL (≈ 2.45 µM)
MIC (S. marcescens IFO 12648; [5]): 0.05 µg/mL (≈ 0.0786 µM)
MIC (E. coli No. 29): 0.012 µg/mL (≈ 0.0189 µM)
MIC (M. moganii IIDkono; [8]): 0.05 µg/mL (≈ 0.0786 µM)
MIC (P. aeruginosa ATCC-10145; [6]): 0.39 µg/mL (≈ 0.613 µM)

Other lines, results leading:

MIC (K. pneumoniae NCTC-9632; [1]): 0.012 µg/mL (≈ 0.0176 µM)
MIC (P. aeruginosa E-2; [2]): 0.1 µg/mL (≈ 0.147 µM)
MIC (A. calcoaceticus Ac-54; [3]): 0.05 µg/mL (≈ 0.0734 µM)
MIC (S. aureaus FDA-209P; [4]): 100 µg/mL (≈ 147 µM)
MIC (S. marcescens IFO 12648; [5]): 0.012 µg/mL (≈ 0.0176 µM)
MIC (M. moganii IIDkono; [8]): 0.024 µg/mL (≈ 0.0352 µM)
MIC (P. aeruginosa ATCC-10145; [6]): 0.1 µg/mL (≈ 0.147 µM)
MIC (E. coli NIHJ JC-2; [7]): 0.1 µg/mL (≈ 0.147 µM)
Structure (SMILES): Nc1nc(/C(=N/OCc2cc(=O)c(O)cn2O)C(=O)N[C@@H]2C(=O)N3C(C(=O)O)=C(CSc4nnnn4CC(=O)O)CS[C@H]23)ns1 [No. 21, (6R,7R)-7-[(Z)-2-(5-amino-1,2,4-thiadiazol-3-yl)-2-(1,5-dihydroxy-4-pyridone-2-ylmethoxyimino)acetamide]-3-(1-carboxymethyl-1H-tetrazole-5-ylthiomethyl)-3-cephem-4-carboxylic acid]

MIC (K. pneumoniae NCTC-9632; [1]): 0.05 µg/mL (≈ 0.0765 µM)
MIC (P. aeruginosa E-2; [2]): 0.2 µg/mL (≈ 0.306 µM)
MIC (A. calcoaceticus Ac-54; [3]): 0.78 µg/mL (≈ 1.19 µM)
MIC (S. aureaus FDA-209P; [4]): 50 µg/mL (≈ 76.5 µM)
MIC (S. marcescens IFO 12648; [5]): 0.05 µg/mL (≈ 0.0765 µM)
MIC (E. coli No. 29): 0.05 µg/mL (≈ 0.0765 µM)
MIC (M. moganii IIDkono; [8]): 0.05 µg/mL (≈ 0.0765 µM)
MIC (P. aeruginosa ATCC-10145; [6]): 0.1 µg/mL (≈ 0.153 µM)
Structure (SMILES): Nc1nc(/C(=N/OCc2cc(=O)c(O)cn2O)C(=O)N[C@@H]2C(=O)N3C(C(=O)O)=C(CSc4nnc(N)s4)SC[C@H]23)cs1 [No. 10, (6S,7S)-7-[(Z)-2-(2-aminothiazol-4-yl)-2-(1,5-dihydroxy-4-pyridone-2-ylmethoxyimino)acetamide]-3-(2-amino-1,3,4-thiadiazol-5-ylthiomethyl)isocephem-4-carboxylic acid]

MIC (K. pneumoniae NCTC-9632; [1]): ≤ 0.006 µg/mL
MIC (P. aeruginosa E-2; [2]): 0.05 µg/mL (≈ 0.0735 µM)
MIC (A. calcoaceticus Ac-54; [3]): 0.012 µg/mL (≈ 0.0176 µM)
MIC (S. aureaus FDA-209P; [4]): 100 µg/mL (≈ 147 µM)
MIC (S. marcescens IFO 12648; [5]): 0.012 µg/mL (≈ 0.0176 µM)
MIC (E. coli No. 29): 0.012 µg/mL (≈ 0.0176 µM)
MIC (M. moganii IIDkono; [8]): 0.024 µg/mL (≈ 0.0353 µM)
MIC (P. aeruginosa ATCC-10145; [6]): 0.05 µg/mL (≈ 0.0735 µM)
Structure (SMILES): Nc1nc(/C(=N/OCc2cc(=O)c(O)cn2O)C(=O)N[C@@H]2C(=O)N3C(C(=O)O)=C(CSc4nnnn4CC(=O)O)SC[C@H]23)cs1 [No. 9, (6S,7S)-7-[(Z)-2-(2-aminothiazol-4-yl)-2-(1,5-dihydroxy-4-pyridone-2-ylmethoxyimino)acetamide]-3-(1-carboxymethyl-1H-tetrazole-5-ylthiomethyl)isocephem-4-carboxylic acid]

MIC (K. pneumoniae NCTC-9632; [1]): ≤ 0.006 µg/mL
MIC (P. aeruginosa E-2; [2]): 0.05 µg/mL (≈ 0.0704 µM)
MIC (A. calcoaceticus Ac-54; [3]): 0.012 µg/mL (≈ 0.0169 µM)
MIC (S. aureaus FDA-209P; [4]): 100 µg/mL (≈ 141 µM)
MIC (S. marcescens IFO 12648; [5]): 0.012 µg/mL (≈ 0.0169 µM)
MIC (E. coli No. 29): 0.012 µg/mL (≈ 0.0169 µM)
MIC (M. moganii IIDkono; [8]): 0.024 µg/mL (≈ 0.0338 µM)
MIC (P. aeruginosa ATCC-10145; [6]): 0.05 µg/mL (≈ 0.0704 µM)
Structure (SMILES): Cc1nc(SCC2=C(C(=O)O)N3C(=O)[C@@H](NC(=O)/C(=N\OCc4cc(=O)c(O)cn4O)c4csc(N)n4)[C@H]3CS2)sc1CC(=O)O [No. 13, (6S,7S)-7-[(Z)-2-(2-aminothiazol-4-yl)-2-(1,5-dihydroxy-4-pyridone-2-ylmethoxyimino)acetamide]-3-[(5-carboxymethyl-4-methyl-thiazol-2-yl)thiomethyl]isocephem-4-carboxylic acid]

MIC (K. pneumoniae NCTC-9632; [1]): ≤ 0.006 µg/mL
MIC (P. aeruginosa E-2; [2]): 0.2 µg/mL (≈ 0.29 µM)
MIC (A. calcoaceticus Ac-54; [3]): 0.39 µg/mL (≈ 0.565 µM)
MIC (S. aureaus FDA-209P; [4]): 12.5 µg/mL (≈ 18.1 µM)
MIC (S. marcescens IFO 12648; [5]): 0.05 µg/mL (≈ 0.0725 µM)
MIC (E. coli No. 29): 0.012 µg/mL (≈ 0.0174 µM)
MIC (M. moganii IIDkono; [8]): 0.1 µg/mL (≈ 0.145 µM)
MIC (P. aeruginosa ATCC-10145; [6]): 0.1 µg/mL (≈ 0.145 µM)
Structure (SMILES): Nc1nc(/C(=N/OCc2cc(=O)c(O)cn2O)C(=O)N[C@@H]2C(=O)N3C(C(=O)[O-])=C(CSc4cc[n+](CC(=O)O)cc4)SC[C@H]23)cs1 [No. 12, (6S,7S)-7-[(Z)-2-(2-aminothiazol-4-yl)-2-(1,5-dihydroxy-4-pyridone-2-ylmethoxyimino)acetamide]-3-[(1-carboxymethyl-4-pyridinio)thiomethyl]isocephem-4-carboxylate]
